Data set [1] in a line: Rectal suppositories of AB-PC-Na with enamine derivative, concentration in blood. Type of data set: in vivo. To be noted: AB-PC-Na 75mg, enamine derivative 60mg, base SB-W 1065mg, dog. As for the experimental part:
These suppositories were rectally administered to dogs and the absorbabilities of the active components were investigated by measuring the blood concentrations. The blood concentrations were measured in conformity with the biological assay method in the Antibiotic Standard of Japan. The cup method was employed with Sarcina lutea for penicillins and Bacillus subtilis for cephalosporins.

Data set [2] is described as follows: Stability in aqueous solution (half-life of enamine derivatives). To be noted: pH 7.4 phosphate buffer, μ 0.15, 25° C., UV absorption spectrometry; "stable" = enamine structure retained even after 6 hours. Type of data set: physicochemical. On the procedure:
To examine the stability in water of the enamine derivatives (I) obtained above, some representative compounds were selected and their half-lives [t 0.5 (min.)] in pH 7.4 phosphate buffer (μ: 0.15, temp.: 25° C.) were determined by ultraviolet absorption spectrometry. In the Table, "stable" means that the enamine structure was retained even after 6 hours.

The nature of data set [3]: Rectal inulin dosage form with adjuvant, urinary recovery of inulin. Conditions: Lunt method. The format is in vivo, human. On the procedure: (§1) The following dosage forms (dispersed in Witepsol H-15®) were rectally administered to dogs and humans to measure the urinary recovery rates of inulin. […] The test was carried out by the Lunt method.
The nature of data set [4]: Rectal insulin suppository with Compound 3, blood glucose concentration (glucoseoxidase method). Type of data set: in vivo, rabbit. To be noted: 3 I.U. insulin per animal + Compound 3 0.05 g in Witepsol H-15. On the procedure:
The test was conducted by the glucoseoxidase method. […] The largest depression of blood glucose from the pre-medication level was expressed in % response.

The nature of data set [5]: Rectal ointment of CET-Na with enamine derivative, blood concentration. The format is in vivo, rabbit. On the procedure:
Cephalothin sodium (briefly CET-Na), a drug which is sparingly absorbed from the rectum, was selected for a test. Thus, CET-Na was dispersed in liquid paraffin-white vaseline base to prepare rectal ointment. The ointment was administered to rabbits by the rectal route. […] The blood concentration was measured in conformity with the biological assay method in the Antibiotic Standard of Japan. […]

Data set [6] is described as follows: Rectal inulin dosage form with adjuvant, urinary recovery of inulin. The format is in vivo, dog. Conditions: in Witepsol H-15, level of addition of enamine derivative 5%, Lunt method. On the procedure: as §1
Data set [7] can be described thus: Rectal ointment of AB-PC.Na with enamine derivative, blood concentration. The format is in vivo, rabbit. To be noted: rectal ointment AB-PC.Na 10%, enamine derivative 10%, dose 15 mg AB-PC.Na/kg. On the procedure: AB-PC and cephalexin (briefly, CEX), both of which are sparingly absorbed from the rectum, are also tested. Thus, enamine derivatives (I) and these antibiotics were used to prepare rectal ointments in accordance with established practice. The ointments were administered to rabbits to investigate the peak blood concentrations (μg/ml) and AUC (μg.min./ml).
Dose: 15mg AB-PC . Na/kg
Compounds 3, 5, 13 and 14 were used as said enamine derivatives (I) in Recipes 4, 5, 6 and 7, respectively.

Data set [8] in a line: Rectal inulin suppository with adjuvant, urinary recovery of inulin. Type of data set: in vivo, rabbit. On the procedure: The above components were used to prepare a suppository in accordance with established pharmaceutical practice. The suppository was rectally administered to rabbits (body weights 2.0-2.5 kg) and the blood concentrations were determined.
The results, shown in FIG. 7, indicates the versatility of enamine derivative (I). The amount of inulin excreted in the urine was 18% of the dose administered.
as §1

The nature of data set [9]: Oral capsule of AB-PC sodium with adjuvant, blood concentration of AB-PC. Conditions: AB-PC sodium 15 mg/kg + Compound 3 10 mg/kg, one value per rabbit, sodium salt. Type of data set: in vivo. As for the experimental part:
Ampicillin (briefly, AB-PC) sodium
Capsules each containing the above indicated amounts of components were prepared by the conventional procedure and administrered to 3 rabbits. Immediately thereafter, each animal was given 20 ml of water and the concentration of AB-PC in the blood was measured by the biological assay method. In the figure, white circles represent AB-PC alone and black circles represent the capsule according to this invention.
The blood concentrations were measured in conformity with the Antibiotic Standard of Japan. The cup method was employed with Sarcina lutea.

Where [10] appears, read: CET, rectal ointment CET.Na 20%, enamine derivative 10%, dose 50 mg CET.Na/kg.

The structures appear in SMILES notation. Values joined by “and” are separate entries in the source; they are usually repeats but may differ in a detail not shown here. Identical values can stand only once.

The record followed here is patent US4277465A, “Adjuvant for promoting absorption of therapeutically active substances through the digestive tract” (Kyoto Yakuhin Kogyo Kabushiki Kaisha, priority 1978, dated 1981).

For `CCOC(=O)C=C(C)NCC(=O)[O-].[Na+]` [Compound 1, N-(1-Methyl-2-ethoxycarbonylvinyl)glycine sodium salt], in data set [1], the “Concentration in blood, 15 min.” value was 1.23 µg/mL; the “Concentration in blood, 30 min.” value came to 0.87 µg/mL; the “Concentration in blood, 60 min.” value turned out to be 0.61 µg/mL; the “Concentration in blood, 120 min.” value came to 0.32 µg/mL. Moreover, the “half-life t 0.5” value in data set [2] stood at 3.7 min. Besides, in data set [3] (in Witepsol H-15, level of addition of enamine derivative 2%), the “% Urinary recovery” value amounted to 12%.

What is called AUC is the area under the concentration-time curve, a measure of exposure. With `CCOC(=O)C=C(C)N[C@@H](C(=O)[O-])c1ccccc1.[Na+]` [Compound 3, N-(1-Methyl-2-ethoxycarbonylvinyl)-D-phenylglycine sodium salt], the “reduction of blood glucose concentration from the pre-medication level” value in [4] was “about 50%”. In addition, the AUC in data set [5] (setting [10]) turned out to be 445 µg·min/mL; in [7] it was 270 µg·min/mL. Besides, the Peak blood concentration in data set [5] (setting [10]) was 14.4 µg/mL; in data set [7], 4.8 µg/mL. Further, the “change in blood concentration of CET (in words)” value in data set [5] (rectal ointment CET-Na 20%, Compound 3 10%, dose 50 mg CET-Na/kg, FIG. 3) is “high CET level in the blood could by very quickly achieved”. The “% Urinary recovery” value in data set [6] came out at 20%; in [8] (inulin, rectal, in Witepsol H-15, level of addition of enamine derivative 10%, Lunt method), 8%; in data set [3] (in Witepsol H-15, level of addition of enamine derivative 1%), 11%. In data set [2], the “half-life t 0.5” value came to 26.1 min. Besides, in data set [8] (rectal suppository, inulin 0.25 g + Compound 3 0.05 g in Witepsol H-15), the “amount of inulin excreted in the urine” value was 18 % of the dose administered. Also, the “area under the blood-concentration curve (AUC) of AB-PC relative to AB-PC alone” value in data set [9] is 1.52 times and 1.99 times and 1.73 times.
